{"source": "paper PMC5238433", "about": "(Scientific Reports, 2017)", "key": {"[1]": {"test_system": "human α-adrenergic 2 A receptors", "settings": "CHO-K1 cells expressing human α-adrenergic 2 A receptors (Gαi coupled), 0.15 to 333 nM, xCELLigence; ref not given (\"Recent studies\"); cited from earlier work", "excerpt": "Recent studies used the xCELLigence system to monitor activation of endogenous GPCRs. […] Here, we also ..."}, "APJ homodimer": {"test_system": "APJ homodimer", "assay": "MALDI-TOF MS of immunoprecipitated APJ complex after treatment with HIV TAT-TMD interference peptides", "format": "binding, human", "settings": "peptide 4 μM, 60 min, 37 °C", "excerpt": "TMDs are important for the formation of head-to-head interfaces in class A GPCR dimers. To identify dimerization interfaces in the seven TMDs of APJ, the effects of cell-penetrating interference peptides (containing the sequence of the hydrophobic transmembrane helices) on APJ homodimerization were examined by MS.\nFigure 5 The effects of interference peptides on apelin receptor (APJ) homodimerization as measured by matrix assisted laser desorption […] time-of-flight (MALDI-TOF) mass spectrometry.\nThe identity of the TMD peptide sequences was analyzed with liquid chromatography (LC)-MS.\nMS was performed to identity APJ dimer interfaces in samples treated with TMD peptides. Cells were transfected with APJ and, 48 h later, treated with or without the indicated HIV TAT-TMD fused peptides (4 μM) for 60 min at 37 °C. Extracted proteins were immunoprecipitated using an anti-APJ antibody. Protein A/G PLUS-agarose beads were incubated with proteins for 2 h and washed four times with lysis buffer. The APJ complex was eluted from beads as described previously. Then, the endogenous APJ complex was analyzed with an AXIMA matrix-assisted laser desorption/ionization time-of-flight (MALDI-TOF) system (Shimazdu) in linear positive mode. The mass range was 4–10 kDa and the matrix was Sinapic Acid (SA), 10 mg/ml (50% acetonitrile (ACN), 50% H2O, 0.1% […] (TFA)). The results were calibrated with a Shimadzu MALDI calibration kit (Laser BioLabs)."}, "[2]": {"test_system": "APJ dimer (APJ-Rluc / APJ-EGFP)", "assay": "BRET, effect of interference peptides on APJ homodimers", "format": "cell-based, human", "excerpt": "Figure 7 The effect of interference peptides on apelin receptor (APJ) dimers. […] BRET[1] was detected as described above."}, "[3]": {"test_system": "human umbilical vein endothelial cells (HUVECs)", "assay": "xCELLigence RTCA, apelin-13-induced cellular response (cell index) with or without interference peptide", "format": "cell-based", "settings": "TMD1 4 μM with apelin-13 10 μM, 0.1 μM or 1 nM; average of quadruplicates", "method": "All curves were plotted as the average of quadruplicate treatments, with error bars shown as SEM.\nA background step (step 1) was performed before other experimental steps. The background step was performed with each well of the E-Plate 16 containing only culture media (100 μl/well) for 30 min at 37 °C, prior to the addition of 10000 HUVECs per well (100 μl/well). […] The schedule settings were as follows (RTCA Software 2.0): […]"}, "[4]": {"test_system": "angiotensin-converting enzyme 2 (ACE2)", "settings": "cited from earlier work", "excerpt": "The apelin receptor (APJ) is a member of the family A of G-protein-coupled receptors (GPCRs) and is involved in range of physiological and pathological functions including fluid homeostasis, anxiety, and depression, as well as cardiovascular and metabolic disorders. APJ was first identified as an orphan GPCR with closest identity to the angiotensin II (Ang II) receptor. In 1998, the peptide apelin was isolated from bovine stomach extracts as the endogenous ligand of APJ."}, "[5]": {"test_system": "APJ homodimers (APJ-Rluc / APJ-EGFP)", "assay": "BRET, effect of agonist/antagonist treatment on APJ homodimerization", "format": "cell-based, human", "settings": "CHO cells co-expressing APJ-Rluc and APJ-EGFP (1:1); concentration not given; four independent experiments in triplicate", "method": "We further assessed APJ interactions by co-immunoprecipitation (Co-IP), BRET[1], and Förster resonance energy transfer (FRET). […] BRET studies were performed to confirm APJ homodimerization.\nFigure 2 Assessment of apelin receptor (APJ) dimerization using co-immunoprecipitation (Co-IP) and bioluminescence resonance energy transfer (BRET) assays. (A) Assessment of APJ homodimerization with Co-IP. Chinese hamster ovary (CHO) cells were either not transfected (mock) or transfected with HA-APJ, Myc-APJ, or both (co-transfection). HA-APJ and Myc-APJ were also mixed (mix). Immunoprecipitated samples were resolved by SDS-PAGE and immunoblotted with an anti-Myc antibody (upper panel). […] (B) Assessment of APJ homodimerization with BRET[1]. (C) BRET saturation curves. (D) Assessment of effects of agonist-treatment on dimerization by BRET[1]. For BRET, four independent experiments were performed with triplicate samples and the results were expressed as the mean ± SEM of four experiments ([…] versus control group; NS, not significant versus unstimulated cells).\nTo monitor constitutive APJ interactions, CHO cells were transfected with APJ-Rluc and APJ-EGFP plasmids at a ratio of 1:1, 1:2, 1:3, 1:4, 1:5, and 1:6 to express a constant amount of donor-labeled protein with increasing amounts of acceptor-labeled protein. At 24 h post-transfection, cells were trypsinized and plated on a 96 well microplate for 24 h in HEPES-buffered phenol red-free medium (Invitrogen, Life Technologies). Coelenterazine h (5 μM; Promega) was added for BRET measurements using a Tristar LB941 plate reader (Berthold) with an Rluc filter (400–475 nm) and a EGFP filter (500–550 nm). To monitor the induced interactions of APJ, BRET signals were measured as described above, with slight modifications. […] To measure the effects of interference peptides on APJ dimers, CHO cells were co-transfected with APJ-Rluc and APJ-EGFP (1:3) and incubated with interference peptides corresponding to TMD1, TMD2, TMD3, TMD4, TMD5, TMD6, and TMD7 at 37 °C (4 μM), and BRET[1] detected as described above."}, "[6]": {"test_system": "APJ oligomers (APJ-Rluc, APJ-VN173, APJ-VC155)", "assay": "BiFC-BRET, effect of agonist/antagonist treatment on APJ oligomerization", "format": "cell-based, human", "settings": "CHO cells co-expressing APJ-Rluc, concentration not given, four independent experiments in triplicate", "method": "Additionally, BiFC-BRET assays were performed to detect APJ oligomerization in living cells. Two non-fluorescent fragments (pCE-BiFC-VN173 and pCE-BiFC-VC155) of Venus fluorescent protein were separately fused to APJ (APJ-VN173 and APJ-VC155) (Fig. 4A). CHO cells were then co-transfected with APJ-Rluc, APJ-VN173, and APJ-VC155 and observed with TIRFM.\nFigure 4 Assessment of apelin receptor (APJ) oligomerization with bioluminescence resonance energy transfer - bimolecular fluorescence complementation (BiFC-BRET). (A) Principle of BiFC-BRET. The assay examines the formation of functional Venus by the complementation of protein fragments fused to APJ. Association of APJ enables formation of a bimolecular fluorescent complex. If all three tagged APJ proteins interact, BRET can occur. (B) TIRFM detection of APJ dimers (yellow particles) after BiFC. (C) Assessment of APJ oligomerization with BiFC-BRET. (D) Assessment of agonist-induced oligomerization."}, "CHO-K1 cells": {"test_system": "CHO-K1 cells", "design": "method as in not given (\"Recent studies\")", "settings": "serum-deprived CHO-K1 cells, 5 pM to 5 μM, xCELLigence; ref not given (\"Recent studies\"); cited from earlier work"}}, "note": "Entries after “also recorded” stand apart in the source; their conditions may differ. No end group written: not given here."}
{"compound": "Brc1c(NC2=NCCN2)ccc2nccnc12", "note": "[UK14,304]", "values": [{"measurement": "cell index response", "setting": "[1]", "result": "induces a dose-dependent increase in CI"}]}
{"compound": "PAIYMLVFLLGTTGNGLVLWTVFYGRKKRRQRRR [TMD1, HIV TAT-fused interference peptide derived from human APJ transmembrane domain 1]", "values": [{"measurement": "species detected by MALDI-TOF MS / effect of peptide on APJ homodimerization", "setting": "APJ homodimer; cells transfected with APJ, anti-APJ immunoprecipitation, MALDI-TOF linear positive mode, mass range 4–10 kDa, sinapic acid", "result": "TMD1 dimers, TMD1 tetramers, APJ, [APJ + TMD1], APJ dimers, and [APJ + TMD1] dimers were detected"}, {"measurement": "binding to APJ (peptides encoding TMDs, MS)", "setting": "APJ homodimer; MALDI-TOF", "result": "can bind to APJ"}, {"measurement": "effect on APJ dimer BRET signals", "setting": "[2]; CHO cells, APJ-Rluc:APJ-EGFP 1:3, peptide 4 μM, 37 °C, four independent experiments in triplicate", "result": "significantly reduced APJ dimer BRET signals"}, {"measurement": "reduction of APJ dimer BRET signals", "setting": "[2]; CHO cells, APJ-Rluc:APJ-EGFP 1:3, peptide 4 μM, 37 °C, four independent experiments in triplicate, P < 0.01, one range for TMD1, 2, 3 and 4", "result": "55–75%"}, {"measurement": "disruption of APJ (homo)dimerization (statement in words)", "setting": "[2]; interference peptides 4 μM, in vitro, by BRET and MS", "result": "disrupted APJ dimerization; also recorded: can effectively disrupt the formation of APJ homodimers; also recorded: disrupted APJ homodimerization in vitro"}, {"measurement": "HUVEC cell index (CI), interference peptide with apelin-13", "setting": "[3]", "result": "led to a decreasing trend in the CI compared to that before treatment"}]}
{"compound": "apelin", "values": [{"measurement": "hydrolysis by ACE2", "setting": "[4]", "result": "high catalytic efficiency"}]}
{"compound": "apelin-36: APJ agonist purchased from Phoenix Pharmaceuticals (LVQPRGSRNGPGPWQGGRRKFRRQRPRLSHKGPMPF; Apelin-36; UniProt Q9ULZ1 42-77, looked up)", "values": [{"measurement": "BRET signal versus unstimulated cells (APJ homodimer formation)", "setting": "[5]", "result": "not significantly different to those of unstimulated cells"}, {"measurement": "BRET ratio versus unstimulated cells (APJ oligomerization, BiFC-BRET)", "setting": "[6]", "result": "the same as that of unstimulated cells"}]}
{"compound": "calcitonin: stimulating serum-deprived CHO-K1 cells with calcitonin (CGNLSTCMLGTYTQDFNKFHTFPQTAIGVGAP; ends and bridges not checked; cysteine pairing not given here; UniProt P01258 85-116, looked up)", "values": [{"measurement": "cell index response", "setting": "CHO-K1 cells", "result": "a transient agonist-induced increase in CI lasting up to a few hours"}]}
